Test results as given in US20060099712A1, “Correlation of anti-cancer activity of dyes with redox potentials” (Eastman Kodak Company, priority 2004, published 2006).

Tested on: CX-1 Human Colon Carcinoma
Experiment: Clonogenic dye screening assay, CX-1 cells (IC50)
Type: cell-based
Set-up: CX: unit not given here
Conditions: for CX (IC50 in the CX-1 cell line): 3 hrs treatment, colonies after 7-10 days, unit from method b117-118; for CV/CX (selectivity, kill ratio): ratio of IC50 in normal CV-1 line to IC50 in carcinoma CX-1 line; for CX: CX-1 cells; for CV/C: selectivity ratio, value of 1 where dye inactive; for CV/CX: selectivity ratio of IC50 values
Excerpt: CX-1 is a cancerous human colon adenocarcinoma cell line. CV-1 is a non-cancerous control, which is a kidney epithelial cell line from an African green monkey. IC50 is the dye concentration at which 50% of the cells are killed. Selectivity or kill ratio is defined as the ratio of […] at IC50 for both CX-1 and CV-1. A ratio with a high number indicates a high selectivity.
The dyes were screened in two cell lines. CX-1 is a human colon adenocarcinoma cell line. CV-1 is a kidney epithelial cell line from an African green monkey. CV-1 was used as a reference because no normal human epithelial cell line is available for clonogenic assay.
In the initial screen, dyes were examined at six different concentrations to generate a dose response curve. An IC50 value, the concentration at which 50% of the cells are killed, was then calculated. Initially, a dye concentration of 1.0 μg/mL was the highest examined for the CX-1 cell line and 0.005 μg/mL was the lower limit. The corresponding limits on the CV-1 cell line were […].
The screening procedure used a response curve that was determined from eight dye concentrations. The upper and lower limits of CX-1 were 0.32 and 0.0015 μg/mL, respectively, and the corresponding revised limits on CV-1 were 3.2 and 0.025 μg/mL. The screening results were reported by assigning an IC50 value to each dye for the CV-1 and CX-1 cell lines. These values will be referred to herein simply as CV and CX. The most desirable result would be to have a dye that was highly toxic to carcinoma cells but nontoxic to ‘normal’ cells. One measure of this type of selectivity is the ratio of the IC50's in the normal cell line to that in the carcinoma line, CV/CX.
Compounds are screened via an in vitro assay. CV-1 and CX-1 cells are seeded into separate assay plates. The plates are treated with varying concentrations of test compounds, rinsed, and colonies allowed to grow. IC50's are determined and drugs evaluated based on their selectivity and toxicity. Assay Steps: • I. Seeding Cells • II. Weighing • III. Preparation of Solution • IV. Treatment • V. Rinsing and Feeding • VI. Fixing • VII. IC50 Determination I. Seeding Cells
The cells should be seeded 16-30 hours before treatment. The media for CV-1 cells is DME+5% calf serum +5% Nuserum. The media for CX-1 cells is RPMI/DME (50/50)+5% calf serum +5% Nuserum.
(c) number of cells based on 2000 CX-1 cells/well and 1000 CV-1 cells/well. NOTE: Always make enough cell suspension for 1 extra plate to allow for volume loss during transfers.
• (a) For CV-1: 256 ug/ml-256 ul of 1 mg/ml stock +744 ul DMSO • (b) For CX-1: 25.6 ug/ml-100 ul of 256 ug/ml+900 ul DMSO IV. Treatment • 1. Each plate is treated with 4 test compounds, one positive control and one negative control. • 2. Serial dilutions of the compounds are made in the following way:
2 multi-well pipetters are used. One is set for 10 ul and one for 200 ul. Each is equipped with 6 tips spaced such that they fit into the 6 rows of a plate. 390 ul of media is added to the first column of each plate. 10 ul each of 4 compound solutions, a positive and a negative control are taken up and put into the first column of wells. The 200 ul pipetter is then placed in the same wells, pipetted up and down 3 times and two 200 ul aliquots are moved to the next column of wells. This column is pipetted up and down 3 times and 400 ul moved to column 3, etc. The final 400 ul excess from column 8 is discarded.
• 3. Label the plates along the front, each row −1 compound. • 4. Incubate the plates at 37° C. for 3 hrs. V. Rinsing • 1. Prepare several bottles of CX-1 and CV-1 media. • 2. Check for precipitate in first column of each plate and note. • 3. Starting with the plates treated first, rinse several plates at a time by aspirating the treatments and refilling each well with 0.5-1.0 ml of the rinse media. Aspirate and refill 2 more times for a total of 3 rinses. • 4.

[1] = Table XXI, oxathiacarbocyanine nitrogen substituents
[2] = Table XVII, benzotellurazole derivatives

Compound	CX (IC50 in the CX-1 cell line)	CV/CX (selectivity, kill ratio)	also measured
CCN1/C(=C/C=C/c2sc3ccc(-c4ccccc4)cc3[n+]2CC)Sc2ccc(-c3ccccc3)cc21 [drawing 41|Et|5-Ph|5-Ph,]	0.08 µg/mL	1.25	
CCN1/C(=C/C=C/c2sc3ccc(OC)cc3[n+]2CC)Sc2ccc(OC)cc21 [drawing 41|Et|5-MeO|5-MeO]		40.0	
CCC(=Cc1sc2ccccc2[n+]1CC)C=C1Sc2ccccc2N1CC [drawing 38|E|H|Et|H]		10.0	
CC[n+]1c(/C=C/C=C2\Oc3ccccc3N2CC(F)(F)F)sc2ccccc21 [drawing 37|Et|CC(F)3]	0.1 µg/mL	50.0	
CCN1C(=CC=Cc2sc3ccc(OC)cc3[n+]2CC)Sc2ccccc21 [drawing 41|Et|5-MeO|H]		40.0	
CC[n+]1c(/C=C/C=C2\Oc3ccccc3N2CC(F)(F)F)sc2ccccc21 [R1=Et, R2=CC(F)3]			CX [1]: 0.1; CV/C (Table XXI): 50.0
CCN1/C(=C/C=C/c2sc3c([n+]2C)CCCC3)Sc2ccccc21.[I-] [benzothiazole(4,5,6,7-H)]			CX (Table XVI, unsymmetrical dyes): <0.005; CV/CX (Table XVI): >60.0
CC[n+]1c(/C=C/C=C2\Sc3ccc4ccccc4c3N2C)sc2ccccc21 [naphtho/1,2/thiazole (R=E/M)]			CX (Table XVI, unsymmetrical dyes): 0.300; CV/CX (Table XVI): 13.3
CN1C(=CC(=Cc2sc3ccccc3[n+]2C)Sc2ccccc2)Sc2ccccc21 [drawing 38|M|H|SPh|H]	0.065 µg/mL	7.69	
CCOC(=O)c1ccc2c(c1)N(CC)/C(=C/C=C/c1oc3ccc(C(=O)OCC)cc3[n+]1CC)O2 [drawing 45|5-CO2Et|5-CO2Et]	>.32 µg/mL	10.0	
CCN1C(=CC=Cc2oc3ccccc3[n+]2CC)Oc2ccccc21 [Dye B-400]			CX (Table XV, symmetrical dyes): 0.10; CV/CX (Table XV): 30.0
CCN1/C(=C/C=C/c2sc3c(OC)cccc3[n+]2CC)Sc2c(OC)cccc21 [drawing 41|Et|7-MeO|7-MeO]		5.0	
CCN1C(=CC(=Cc2sc3ccccc3[n+]2CC)CSC(C)=O)Oc2ccccc21 [drawing 39|E|H|CSC(═O)C]	0.03 µg/mL	33.3	
CCN1/C(=C/C(=C/c2sc3ccccc3[n+]2CC)C(=S)SC)Sc2ccccc21 [drawing 38|E|H|C(═S)SC|H]		>10.0	
CCOC(=O)c1c(C)c(C=CC=C2SCCN2C)cc2[n+]1CCc1ccccc1-2.[O-][Cl+3]([O-])([O-])[O-] [Dye D-171]		62.5	
CC(=Cc1sc2ccccc2[n+]1C)C=C1Sc2ccccc2N1C [drawing 38|M|H|Me|H]	0.02 µg/mL	5.0	
CCN(CC)C(=O)C[n+]1c(/C=C/C=C2\Oc3ccccc3N2CC)sc2ccccc21 [drawing 37|Cc(═0)N(Et)2|Et]	0.3 µg/mL	>33.3	
CCN1/C(=C/C=C/c2oc3c(Cl)c(C)c(Cl)cc3[n+]2CC)Oc2c1cc(Cl)c(Cl)c2C [drawing 45|5,7-Cl, 6-Me|5,6-Cl, 7-Me]		>10.0	
CCN1/C(=C/C=C/c2oc3c(-c4ccccc4)cccc3[n+]2CC)Oc2c(-c3ccccc3)cccc21 [drawing 45|7-Ph|7-Ph]	0.16 µg/mL	5.0	
CCN1C(=CC=Cc2[te]c3ccc(C)cc3[n+]2CC)[Te]c2ccc(C)cc21 [R=E, X=Te, Z1=5-Me, R2=H, Z2=5-Me]			CX [2]: 0.052; CV/CX (Table XVII): 7.7

Compound	CX (IC50 in the CX-1 cell line)	CV/CX (selectivity, kill ratio)	also measured
CN1/C(=C/C=C(\C=O)c2sc3ccccc3[n+]2C)Sc2ccccc21 [drawing 38|M|CHO|H|H]	>0.32 µg/mL	10.0	
CC[n+]1c(/C=C/C=C2C=CC=CN2C)sc2ccccc21 [Dye 2-pyridine]			CX (Table XVI, unsymmetrical dyes): 0.08; CV/CX (Table XVI): 50.0
CCN1/C(=C/C=C/c2sc3cc(O)c(O)cc3[n+]2CC)Sc2ccccc21 [drawing 41|Et|5,5-OH|H]		10.0	
CCN1/C(=C/C=C/c2sc3ccccc3[n+]2CCC(=O)N(c2ccccc2)C(C)C)Oc2ccccc21 [drawing 37|CCC(═0)N(iPr)Ph|Et]	0.03 µg/mL	26.7	
CCN1/C(=C/C=C/c2sc3ccccc3[n+]2CC)Oc2ccc(NS(=O)(=O)c3ccccc3)cc21 [drawing 44|E|H|5-NHSO2Ph]		16.7	
CCN1/C(=C/C=C/c2sc3ccccc3[n+]2CCNS(=O)(=O)c2ccc(C)cc2)Oc2ccccc21 [R1=CCNS02Ph-4C, R2=Et]			CX [1]: 0.3; CV/C (Table XXI): 26.7
CC[n+]1c(/C=C/C=C2\SC(C)=C(C)N2C)oc2ccccc21.[I-] [Dye D-119]	0.05 µg/mL	60	
CCN1/C(=C\C=C\c2sc3ccc4ccccc4c3[n+]2CC)Oc2ccc3ccccc3c21 [drawing 40|E|H]	0.3 µg/mL	6.7	
CCN1C(=CC(=Cc2sc3ccccc3[n+]2CC)SC)Sc2ccccc21 [drawing 38|E|H|SMe|H]	0.24 µg/mL	1.25	
COc1cccc2c3c(ccc12)S/C(=C\C=C\c1sc2ccc4c(OC)cccc4c2[n+]1C)N3C [drawing 43|M|6-MeO|6-MeO]	0.08 µg/mL	10.0	
CCN1C(=CC=Cc2sc3ccc(OC)cc3[n+]2CC)Sc2ccc(C)cc21 [drawing 41|Et|5-MeO|5-Me]	0.015 µg/mL	13.3	
CCN1/C(=C/C(C)=C/c2[te]c3ccc(C)cc3[n+]2CC)Sc2ccc(Cl)cc21 [R=E, X=S, Z1=5-Me, R2=Me, Z2=5-Cl]			CX [2]: 0.10; CV/CX (Table XVII): 10.0
CCN1/C(=C\C=C\c2sc3ccccc3[n+]2CC(=O)c2ccc(O)c(O)c2)Oc2ccccc21 [drawing 37|CC(═O)Ph-3,4-OH|Et]	>1.0 µg/mL	10.0	
CCN1C(=CC=Cc2ccc3ccccc3[n+]2CC)C=Cc2ccccc21 [Dye B-301]			CX (Table XV, symmetrical dyes): 0.040; CV/CX (Table XV): 12.5
CCN1C(=CC=Cc2oc3ccc(F)cc3[n+]2CC)Oc2ccc(F)cc21 [drawing 45|5-F|5-F]	>.32 µg/mL	10.0	
CCN(CC)C(=O)C[n+]1c(/C=C/C=C2\Oc3ccccc3N2CC)sc2ccccc21 [R1=CC(═0)N(Et)2, R2=Et]			CX [1]: 0.3; CV/C (Table XXI): >33.3
C(/C=C/c1sc2cccc3c2[n+]1CCC3)=C1/Sc2cccc3c2N1CCC3 [Dye D-102]	<0.005 µg/mL	160	
CCN1/C(=C/C=C/c2sc3ccccc3[n+]2CC)Oc2cc(C)c(C)cc21 [drawing 44|E|H|5,6-Me]		>20.0	
CCN1/C(=C/C=C/c2sc3ccccc3[n+]2CC(=O)c2ccc(O)cc2O)Oc2ccccc21 [R1=CC(═0)Ph-2,4-OH, R2=Et]			CX [1]: 0.3; CV/C (Table XXI): >33.3
CN1C(=CC=Cc2[se]c3ccccc3[n+]2C)[Se]c2ccccc21 [Dye B-405]			CX (Table XV, symmetrical dyes): 0.008; CV/CX (Table XV): 7.5
